ChEMBL document CHEMBL1201862, “PubChem BioAssay data set” (2004)
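Values below derive from 48-hour exposures of cells grown in 96-well plates, with endpoints linearly interpolated between the two concentrations bracketing the appropriate inhibition level. GI50 is the concentration that inhibits growth by half.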 The source made the active and inactive calls. Cut-off read from the data, not from the text of the source: active = GI50 up to about 1.1 µM and inactive = higher.

Assays:
Experiment in all cases: inhibition of tumour cell growth, NCI panel, 48 h
HOP-92 = tested on: HOP-92
SN12C = tested on: SN12C
HCT-116 = tested on: HCT-116
NCI-H460 = tested on: NCI-H460
NCI/ADR-RES = tested on: NCI/ADR-RES
NCI-H522 = tested on: NCI-H522
NCI-H23 = tested on: NCI-H23
SF-539 = tested on: SF-539
OVCAR-8 = tested on: OVCAR-8
U-251 = tested on: U-251
CAKI-1 = tested on: CAKI-1
HOP-62 = tested on: HOP-62
UO-31 = tested on: UO-31
SF-295 = tested on: SF-295
NCI-H226 = tested on: NCI-H226
MDA-MB-435 = tested on: MDA-MB-435
HCT-15 = tested on: HCT-15
K562 = tested on: K562
Malme-3M = tested on: Malme-3M
HL-60 = tested on: HL-60

Compound | GI50 (HOP-92) | GI50 (SN12C) | GI50 (HCT-116) | GI50 (NCI-H460) | GI50 (NCI/ADR-RES) | GI50 (NCI-H522) | GI50 (NCI-H23) | GI50 (SF-539) | GI50 (OVCAR-8) | GI50 (U-251) | GI50 (CAKI-1) | GI50 (HOP-62) | GI50 (UO-31) | GI50 (SF-295) | GI50 (NCI-H226) | GI50 (MDA-MB-435) | GI50 (HCT-15) [µM] | GI50 (K562) | GI50 (Malme-3M) | GI50 (HL-60)
Cn1c(=O)oc2nc(-c3ccccc3)cc(C(F)(F)F)c21 | 35.7 µM (inactive) | 5.71 µM (inactive) | 9.33 µM (inactive) | > 100 µM (inactive) | 58.3 µM (inactive) | > 100 µM (inactive) | > 100 µM (inactive) | 5.3 µM (inactive) | > 100 µM (inactive) | 95.3 µM (inactive) | > 100 µM (inactive) | > 100 µM (inactive) | > 100 µM (inactive) | > 100 µM (inactive) | > 100 µM (inactive) | 15.9 µM (inactive) | > 100 |  |  | 
COC(=O)C1CC(C=[N+](C)C)=C(SC)N1C(=O)OCc1ccccc1 (stereo not given) | > 100 µM (inactive) |  | > 100 µM (inactive) | 30.8 µM (inactive) | > 100 µM (inactive) | > 100 µM (inactive) | > 100 µM (inactive) |  | > 100 µM (inactive) | > 100 µM (inactive) | > 100 µM (inactive) | > 100 µM (inactive) | > 100 µM (inactive) | > 100 µM (inactive) |  | > 100 µM (inactive) | > 100 | > 100 µM (inactive) | > 100 µM (inactive) | 
Cc1c(O)c(OC2OC(CO)C(O)C(O)C2O)cc2c1CC[C@@H]1C2(C)C(=O)C[C@]2(C)[C@@H]([C@@](C)(O)C(=O)CCC(C)(C)O)[C@H](O)C[C@@]12C (stereo not given in full) | > 100 µM (inactive) | > 100 µM (inactive) | > 100 µM (inactive) | > 100 µM (inactive) | > 100 µM (inactive) | > 100 µM (inactive) | > 100 µM (inactive) | > 100 µM (inactive) | > 100 µM (inactive) | > 100 µM (inactive) | > 100 µM (inactive) | > 100 µM (inactive) | > 100 µM (inactive) | > 100 µM (inactive) | > 100 µM (inactive) | > 100 µM (inactive) | > 100 | > 100 µM (inactive) | > 100 µM (inactive) | 
COc1cc(-c2cc(OC)c(OC)c3ccc(Br)cc23)c2cc(Br)ccc2c1OC | 18.9 µM (inactive) | 26 µM (inactive) | 12.4 µM (inactive) | 41.7 µM (inactive) | 33.7 µM (inactive) | 42.9 µM (inactive) | 22.4 µM (inactive) | 21.5 µM (inactive) |  | 20.5 µM (inactive) | 47.4 µM (inactive) | 21.6 µM (inactive) | 41.8 µM (inactive) | 18.6 µM (inactive) | 23.3 µM (inactive) | 23.7 µM (inactive) | 63.2 | 22.4 µM (inactive) | 24.1 µM (inactive) | 
Cc1cc(N(CCC#N)CCC#N)ccc1C(/N=N\c1ccc([N+](=O)[O-])cc1)=N\NC(=O)c1cc(Cl)ccc1O |  | 22.6 µM (inactive) | 25.5 µM (inactive) | 25.1 µM (inactive) | 28.7 µM (inactive) | 9.35 µM (inactive) | 15.6 µM (inactive) | 40.4 µM (inactive) | 19.8 µM (inactive) | 46.1 µM (inactive) | 40.7 µM (inactive) | 26.2 µM (inactive) | 13.8 µM (inactive) | 29.1 µM (inactive) | 25.5 µM (inactive) | 64.9 µM (inactive) | 29.6 | 35.2 µM (inactive) | 28.1 µM (inactive) | 
COC(=O)/C(=N\NC(N)=O)C(C(=O)C(=O)Nc1ccccc1C(=O)OC)c1nc2ccc(C(=O)c3ccccc3)cc2nc1O (stereo not given) | > 100 µM (inactive) | > 100 µM (inactive) | > 100 µM (inactive) | > 100 µM (inactive) |  | > 100 µM (inactive) | > 100 µM (inactive) | > 100 µM (inactive) | > 100 µM (inactive) | > 100 µM (inactive) | > 100 µM (inactive) | > 100 µM (inactive) | > 100 µM (inactive) | > 100 µM (inactive) | > 100 µM (inactive) |  | > 100 | > 100 µM (inactive) | > 100 µM (inactive) | > 100 µM (inactive)
C=C1C(=O)O[C@H]2/C=C(/C)C3=CC(=O)[C@@](C)(C[C@@H](OC(=O)/C(C)=C\C)C12)O3 (stereo not given in full) | 0.703 µM (active) | 1.36 µM (inactive) | 0.377 µM (active) | 2.35 µM (inactive) |  | 0.138 µM (active) | 2.42 µM (inactive) | 1.93 µM (inactive) | 0.863 µM (active) | 2.43 µM (inactive) | 0.185 µM (active) | 9.4 µM (inactive) | 1.21 µM (inactive) | 12 µM (inactive) | 2.59 µM (inactive) | 1.21 µM (inactive) | 0.216 | 0.154 µM (active) |  | < 0.0451 µM (active)
CCN(CC)CCC(=O)c1ccc(Oc2ccccc2)cc1 | 15.8 µM (inactive) | 17.6 µM (inactive) | 17.9 µM (inactive) |  | 21.9 µM (inactive) |  | 25.1 µM (inactive) | 18.6 µM (inactive) | 39.7 µM (inactive) | 17.9 µM (inactive) | 16.7 µM (inactive) | 27.5 µM (inactive) |  | 55.3 µM (inactive) | > 100 µM (inactive) | 20.7 µM (inactive) | 17.4 | 35.3 µM (inactive) | 15.1 µM (inactive) | 
